Experimental data taken from ChEMBL document CHEMBL1909046, “DrugMatrix in vitro pharmacology data”.

Columns and labels:
Insulin receptor = Insulin receptor (Rattus norvegicus, UniProt P15127); assay type: cell membranes, Wistar, Liver, Membrane; note: in other assays of this panel Not Active means under 50% inhibition at 10 µM
[1] = target: Beta-1 adrenergic receptor (Homo sapiens, UniProt P08588); test: DRUGMATRIX: Adrenergic beta1 radioligand binding (ligand: [125I] Cyanopindolol); assay type: cell membranes, CHO-K1, Membrane; details: cho-k1; Not Active = under 50% inhibition at 10 µM
Beta-1 adrenergic receptor, sequence (P08588 whole entry): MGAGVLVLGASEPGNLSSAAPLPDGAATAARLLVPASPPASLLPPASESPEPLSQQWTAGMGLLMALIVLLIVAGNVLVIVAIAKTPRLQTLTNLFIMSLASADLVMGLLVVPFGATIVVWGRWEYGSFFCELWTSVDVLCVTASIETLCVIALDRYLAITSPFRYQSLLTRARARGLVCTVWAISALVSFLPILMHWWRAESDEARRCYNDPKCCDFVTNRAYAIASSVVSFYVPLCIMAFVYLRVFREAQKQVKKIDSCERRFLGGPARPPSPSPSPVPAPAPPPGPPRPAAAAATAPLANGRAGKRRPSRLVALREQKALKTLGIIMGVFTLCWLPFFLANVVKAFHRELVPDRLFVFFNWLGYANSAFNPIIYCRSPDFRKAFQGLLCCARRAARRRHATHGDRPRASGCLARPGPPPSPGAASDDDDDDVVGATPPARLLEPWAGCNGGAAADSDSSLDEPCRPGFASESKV

[2] = target: Receptor tyrosine-protein kinase erbB-2 (Homo sapiens, UniProt P04626); assay type: cell-based; details: insect cells;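 note: inhibition of HER2 kinase enzyme activity, measured with Poly(Glu:Tyr) as the phosphorylation substrate; in other assays of this panel Not Active means under 50% inhibition at 10 µM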
[3] = target: Matrix metalloproteinase-9 (Homo sapiens, UniProt P14780); assay type: cell-based;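 note: inhibition of isolated MMP-9 enzyme activity toward a synthetic peptide substrate, from the DrugMatrix protease screening panel; in other assays of this panel Not Active means under 50% inhibition at 10 µM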
Matrix metalloproteinase-9, sequence (P14780 whole entry): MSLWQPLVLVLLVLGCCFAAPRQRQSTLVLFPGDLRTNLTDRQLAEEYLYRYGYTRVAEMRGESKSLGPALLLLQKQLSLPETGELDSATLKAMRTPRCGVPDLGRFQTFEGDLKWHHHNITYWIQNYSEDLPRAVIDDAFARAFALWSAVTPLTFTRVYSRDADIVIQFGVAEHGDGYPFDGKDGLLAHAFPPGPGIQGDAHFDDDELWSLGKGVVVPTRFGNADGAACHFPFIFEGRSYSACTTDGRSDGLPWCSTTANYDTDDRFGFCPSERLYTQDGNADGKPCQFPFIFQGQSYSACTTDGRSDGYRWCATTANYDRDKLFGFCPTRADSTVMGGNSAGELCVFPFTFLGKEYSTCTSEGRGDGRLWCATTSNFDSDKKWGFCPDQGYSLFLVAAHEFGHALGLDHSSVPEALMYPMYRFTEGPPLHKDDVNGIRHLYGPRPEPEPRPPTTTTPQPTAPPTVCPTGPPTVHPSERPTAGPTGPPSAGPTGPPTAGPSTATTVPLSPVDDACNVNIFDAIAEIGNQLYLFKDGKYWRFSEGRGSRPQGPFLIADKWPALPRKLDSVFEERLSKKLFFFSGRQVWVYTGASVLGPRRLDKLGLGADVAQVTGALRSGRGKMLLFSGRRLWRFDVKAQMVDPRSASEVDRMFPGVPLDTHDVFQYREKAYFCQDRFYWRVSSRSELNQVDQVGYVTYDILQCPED

[4] = target: Tyrosine-protein kinase Fyn (Homo sapiens, UniProt P06241); test: biochemical; assay type: cell-based, Insect cells; details: insect cells;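 note: enzymatic inhibition of Fyn kinase activity measured with Poly(Glu:Tyr) as the phosphorylation substrate; in other assays of this panel Not Active means under 50% inhibition at 10 µM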
Tyrosine-protein kinase Fyn, sequence (P06241 whole entry): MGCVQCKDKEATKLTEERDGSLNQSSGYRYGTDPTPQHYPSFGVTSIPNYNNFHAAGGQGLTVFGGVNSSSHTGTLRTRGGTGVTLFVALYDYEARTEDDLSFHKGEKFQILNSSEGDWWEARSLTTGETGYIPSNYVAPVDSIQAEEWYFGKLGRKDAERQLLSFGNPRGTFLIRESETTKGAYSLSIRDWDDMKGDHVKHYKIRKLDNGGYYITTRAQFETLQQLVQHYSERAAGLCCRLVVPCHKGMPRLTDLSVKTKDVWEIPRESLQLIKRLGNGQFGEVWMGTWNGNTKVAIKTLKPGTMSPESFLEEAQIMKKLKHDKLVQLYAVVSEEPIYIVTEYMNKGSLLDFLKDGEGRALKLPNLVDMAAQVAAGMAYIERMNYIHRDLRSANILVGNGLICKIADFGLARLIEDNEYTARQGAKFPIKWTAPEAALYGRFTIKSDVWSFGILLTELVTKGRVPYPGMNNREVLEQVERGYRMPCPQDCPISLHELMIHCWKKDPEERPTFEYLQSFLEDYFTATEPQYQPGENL

Cathepsin G = target: T1, Cathepsin G (Homo sapiens, UniProt P08311); test: biochemical; assay type: tissue-based, Neutrophil; details: neutrophil
T1 sequence (P08311 whole entry): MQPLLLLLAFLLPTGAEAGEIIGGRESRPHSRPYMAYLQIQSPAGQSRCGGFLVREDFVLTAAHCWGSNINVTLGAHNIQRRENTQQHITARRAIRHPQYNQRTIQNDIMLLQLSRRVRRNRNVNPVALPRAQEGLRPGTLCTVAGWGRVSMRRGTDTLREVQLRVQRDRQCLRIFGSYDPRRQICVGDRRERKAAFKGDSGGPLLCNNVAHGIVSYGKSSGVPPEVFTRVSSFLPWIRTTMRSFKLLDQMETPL

[5] = target: T2, 5-hydroxytryptamine receptor 1A (Rattus norvegicus, UniProt P19327); assay type: cell membranes, CHO-K1, Membrane; note: in other assays of this panel Not Active means under 50% inhibition at 10 µM
T2 sequence (P19327 whole entry): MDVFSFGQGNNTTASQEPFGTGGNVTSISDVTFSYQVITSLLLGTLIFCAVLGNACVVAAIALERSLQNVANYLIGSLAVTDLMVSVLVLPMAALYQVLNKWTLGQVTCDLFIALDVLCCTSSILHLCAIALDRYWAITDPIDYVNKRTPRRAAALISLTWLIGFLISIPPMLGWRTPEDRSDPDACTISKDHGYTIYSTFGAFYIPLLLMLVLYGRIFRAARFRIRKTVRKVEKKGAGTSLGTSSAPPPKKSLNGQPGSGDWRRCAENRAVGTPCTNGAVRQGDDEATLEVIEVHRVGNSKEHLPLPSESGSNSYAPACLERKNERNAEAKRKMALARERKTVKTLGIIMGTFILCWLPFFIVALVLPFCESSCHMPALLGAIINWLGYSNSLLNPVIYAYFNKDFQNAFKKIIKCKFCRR

[6] = target: T3, Neuropeptide Y receptor type 1 (Homo sapiens, UniProt P25929); assay type: cell membranes, Membrane; details: sk-n-mc; note: in other assays of this panel Not Active means under 50% inhibition at 10 µM
T3 sequence (P25929 whole entry): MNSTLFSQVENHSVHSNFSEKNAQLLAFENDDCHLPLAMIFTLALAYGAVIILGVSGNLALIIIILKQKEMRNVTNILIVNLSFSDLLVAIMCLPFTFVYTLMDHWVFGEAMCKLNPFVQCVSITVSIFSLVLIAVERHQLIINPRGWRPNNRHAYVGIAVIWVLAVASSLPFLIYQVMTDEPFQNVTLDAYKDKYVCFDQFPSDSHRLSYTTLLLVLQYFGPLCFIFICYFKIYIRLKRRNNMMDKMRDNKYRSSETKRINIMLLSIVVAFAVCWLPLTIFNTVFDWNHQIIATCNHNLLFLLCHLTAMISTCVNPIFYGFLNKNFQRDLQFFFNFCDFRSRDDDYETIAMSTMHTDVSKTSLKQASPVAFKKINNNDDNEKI

Cytochrome P450 1A2 = target: T4, Cytochrome P450 1A2 (Homo sapiens, UniProt P05177); details: bti-tn-5b1-4; note: in other assays of this panel Not Active means under 50% inhibition at 10 µM
T4 sequence (P05177 whole entry): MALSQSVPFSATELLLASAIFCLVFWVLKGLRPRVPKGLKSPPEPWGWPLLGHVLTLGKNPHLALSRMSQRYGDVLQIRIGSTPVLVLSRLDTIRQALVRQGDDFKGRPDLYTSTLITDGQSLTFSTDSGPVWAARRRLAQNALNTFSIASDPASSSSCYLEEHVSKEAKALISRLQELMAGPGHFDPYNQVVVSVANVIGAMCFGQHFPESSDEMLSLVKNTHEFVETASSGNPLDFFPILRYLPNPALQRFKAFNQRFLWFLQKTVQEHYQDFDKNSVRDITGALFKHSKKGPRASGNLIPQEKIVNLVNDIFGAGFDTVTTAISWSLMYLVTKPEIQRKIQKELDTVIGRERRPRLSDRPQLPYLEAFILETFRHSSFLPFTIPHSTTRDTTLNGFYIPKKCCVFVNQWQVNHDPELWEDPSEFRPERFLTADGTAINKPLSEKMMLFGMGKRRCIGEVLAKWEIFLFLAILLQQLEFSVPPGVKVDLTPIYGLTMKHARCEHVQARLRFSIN

Insulin receptor, sequence (P15127 27-759 limits assumed): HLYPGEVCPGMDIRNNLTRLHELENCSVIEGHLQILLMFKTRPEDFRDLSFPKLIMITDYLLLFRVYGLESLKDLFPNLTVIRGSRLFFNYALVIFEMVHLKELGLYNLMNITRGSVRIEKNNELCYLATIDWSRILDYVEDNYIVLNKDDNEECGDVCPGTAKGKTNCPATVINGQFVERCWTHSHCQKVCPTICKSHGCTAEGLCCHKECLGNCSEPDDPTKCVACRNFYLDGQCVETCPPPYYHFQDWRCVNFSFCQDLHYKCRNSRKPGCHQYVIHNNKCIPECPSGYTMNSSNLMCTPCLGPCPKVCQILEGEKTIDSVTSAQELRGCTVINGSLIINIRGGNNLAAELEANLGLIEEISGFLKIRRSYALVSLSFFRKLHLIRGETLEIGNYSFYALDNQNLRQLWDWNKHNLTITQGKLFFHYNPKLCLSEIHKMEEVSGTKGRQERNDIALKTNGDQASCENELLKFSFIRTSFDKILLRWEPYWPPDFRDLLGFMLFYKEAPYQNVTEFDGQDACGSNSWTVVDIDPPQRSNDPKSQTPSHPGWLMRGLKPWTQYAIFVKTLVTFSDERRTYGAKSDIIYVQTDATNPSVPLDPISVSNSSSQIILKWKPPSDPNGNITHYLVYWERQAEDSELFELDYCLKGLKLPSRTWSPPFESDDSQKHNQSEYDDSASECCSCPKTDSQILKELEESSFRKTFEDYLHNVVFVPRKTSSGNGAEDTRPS
Insulin receptor, sequence (P15127 764-1383 limits assumed): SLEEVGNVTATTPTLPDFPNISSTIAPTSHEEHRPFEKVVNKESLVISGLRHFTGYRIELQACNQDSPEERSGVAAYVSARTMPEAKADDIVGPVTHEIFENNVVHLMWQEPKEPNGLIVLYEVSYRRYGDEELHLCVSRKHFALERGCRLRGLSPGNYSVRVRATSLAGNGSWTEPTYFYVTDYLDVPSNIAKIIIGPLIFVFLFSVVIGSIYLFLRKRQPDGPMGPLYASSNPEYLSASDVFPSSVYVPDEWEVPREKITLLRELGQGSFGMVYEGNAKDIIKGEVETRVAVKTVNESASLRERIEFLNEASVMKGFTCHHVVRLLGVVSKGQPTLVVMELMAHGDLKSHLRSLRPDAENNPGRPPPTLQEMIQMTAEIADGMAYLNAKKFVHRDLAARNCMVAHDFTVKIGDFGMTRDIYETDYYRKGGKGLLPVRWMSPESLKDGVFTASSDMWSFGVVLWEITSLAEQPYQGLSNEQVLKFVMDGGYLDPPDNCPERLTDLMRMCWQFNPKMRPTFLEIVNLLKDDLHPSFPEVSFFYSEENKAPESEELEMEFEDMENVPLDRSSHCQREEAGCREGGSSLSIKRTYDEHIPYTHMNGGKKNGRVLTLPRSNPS

| Molecule | IC50 (Insulin receptor) | IC50 [1] | IC50 [2] | IC50 [3] | IC50 [4] | IC50 (Cathepsin G) | IC50 ([5]; cho-k1) | IC50 [6] | IC50 (Cytochrome P450 1A2) | Ki (Cytochrome P450 1A2) | Ki (Insulin receptor) | Ki [1] | Ki [2] | Ki [3] | Ki (Cathepsin G) | Ki ([5]; cho-k1) | Ki [6] | IC50 ([5]; read-out: IC50) | Ki ([5]; read-out: Ki) |
| --- | --- | --- | --- | --- | --- | --- | --- | --- | --- | --- | --- | --- | --- | --- | --- | --- | --- | --- | --- |
| Oc1ccccc1 [PHENOL] | Not Active | Not Active | Not Active | Not Active | Not Active | Not Active | Not Active | Not Active | Not Active | Not Active |  |  |  |  |  |  |  |  |  |
| Oc1ncnc2[nH]ncc12 [ALLOPURINOL] | Not Active | Not Active | Not Active | Not Active | Not Active | Not Active | Not Active | Not Active | Not Active | Not Active |  |  |  |  |  |  |  |  |  |
| COC(=O)Nc1nc2ccc(Sc3ccccc3)cc2[nH]1 [FENBENDAZOLE] | Not Active | Not Active | Not Active | Not Active | Not Active | Not Active | Not Active | Not Active | Not Active | Not Active |  |  |  |  |  |  |  |  |  |
| C[C@@H]1[C@H](O)[C@@H](C)/C=C/C=C/C=C/C=C/C=C/C=C/C=C/[C@H](O[C@@H]2O[C@H](C)[C@@H](O)[C@H](N)[C@@H]2O)C[C@@H]2O[C@](O)(C[C@@H](O)C[C@@H](O)[C@H](O)CC[C@@H](O)C[C@@H](O)CC(=O)O[C@H]1C)C[C@H](O)[C@H]2C(=O)O [AMPHOTERICIN B] | Not Active | Not Active | Not Active | Not Active | Not Active | Not Active | Not Active | Not Active | Not Active | Not Active |  |  |  |  |  |  |  |  |  |
| CCO [ALCOHOL] | Not Active | Not Active | Not Active | Not Active | Not Active | Not Active | Not Active | Not Active | Not Active | Not Active |  |  |  |  |  |  |  |  |  |
| COc1cc(/C=C/C(=O)O)ccc1O [FERULATE] | Not Active | Not Active | Not Active | Not Active | Not Active | Not Active | Not Active | Not Active | Not Active | Not Active |  |  |  |  |  |  |  |  |  |
| CNC[C@H](O)c1ccc(O)c(O)c1 [EPINEPHRINE] | Not Active | Not Active | Not Active | Not Active | Not Active | Not Active | Not Active | Not Active | Not Active | Not Active |  |  |  |  |  |  |  |  |  |
| CC1(COc2ccc(CC3SC(=O)NC3=O)cc2)CCCCC1 (centres undefined) [CIGLITAZONE] | Not Active | Not Active | Not Active | Not Active | Not Active | Not Active | Not Active | Not Active | Not Active | Not Active |  |  |  |  |  |  |  |  |  |
| NC(N)=Nc1nc(CSCCC(N)=NS(N)(=O)=O)cs1 [FAMOTIDINE] | Not Active | Not Active | Not Active | Not Active | Not Active | Not Active | Not Active | Not Active | Not Active | Not Active |  |  |  |  |  |  |  |  |  |
| Cc1c(N)nc([C@H](CC(N)=O)NC[C@H](N)C(N)=O)nc1C(=O)N[C@H](C(=O)N[C@H](C)[C@@H](O)[C@H](C)C(=O)N[C@H](C(=O)NCCc1nc(-c2nc(C(=O)NCCC[S+](C)C)cs2)cs1)[C@@H](C)O)[C@@H](O[C@@H]1O[C@@H](CO)[C@@H](O)[C@H](O)[C@@H]1O[C@H]1O[C@H](CO)[C@@H](O)[C@H](OC(N)=O)[C@@H]1O)c1c[nH]cn1.[Br-] [BLEOMYCIN A2] | Not Active |  | Not Active | Not Active | Not Active | Not Active | Not Active | Not Active | Not Active | Not Active |  |  |  |  |  |  |  |  |  |
| COc1cc(NC(C)CCCN)c2ncccc2c1 (centres undefined) [PRIMAQUINE] | Not Active | Not Active | Not Active | Not Active | Not Active | Not Active | Not Active | Not Active |  |  |  |  |  |  |  |  |  |  |  |
| c1ccc2c(c1)Nc1ccccc1S2 [PHENOTHIAZINE] | Not Active | Not Active | Not Active | Not Active | Not Active | Not Active | Not Active | Not Active |  |  |  |  |  |  |  |  |  |  |  |
| CHROMIC CHLORIDE | Not Active | Not Active | Not Active | Not Active |  | Not Active | Not Active | Not Active | Not Active | Not Active | Not Active | Not Active | Not Active | Not Active | Not Active | Not Active | Not Active |  |  |
| O=c1[nH]c2ccccc2c2ccccc12 | Not Active | Not Active | Not Active | Not Active | Not Active | Not Active | Not Active | Not Active |  |  |  |  |  |  |  |  |  |  |  |
| O=C(O)CNCP(=O)(O)O [GLYPHOSATE] | Not Active | Not Active | Not Active | Not Active | Not Active | Not Active | Not Active | Not Active |  |  |  |  |  |  |  |  |  |  |  |
| NS(=O)(=O)c1cc(C(=O)O)c(NCc2ccco2)cc1Cl [FUROSEMIDE] | Not Active | Not Active | Not Active | Not Active | Not Active | Not Active | Not Active | Not Active |  |  |  |  |  |  |  |  |  |  |  |
| CC(=O)Nc1ccc2c(c1)Cc1ccccc1-2 [2-ACETYLAMINOFLUORENE] | Not Active | Not Active | Not Active | Not Active | Not Active | Not Active | Not Active | Not Active |  |  |  |  |  |  |  |  |  |  |  |
| COc1ccccc1OCCNCC(O)COc1cccc2[nH]c3ccccc3c12 (centres undefined) [CARVEDILOL] | Not Active |  | Not Active | Not Active | Not Active | Not Active |  | Not Active | Not Active | Not Active |  |  |  |  |  |  |  | 5.84 nM | 3.34 nM |
| CC(N)Cc1c[nH]c2ccc(OCc3cccs3)cc12 (centres undefined) [BW-723C86] | Not Active | Not Active | Not Active | Not Active | Not Active | Not Active |  | Not Active |  |  |  |  |  |  |  |  |  | 1130 nM | 644 nM |
| CCN(CCO)CCCC(C)Nc1ccnc2cc(Cl)ccc12 (centres undefined) [HYDROXYCHLOROQUINE] | Not Active |  | Not Active | Not Active | Not Active | Not Active | Not Active | Not Active |  |  |  |  |  |  |  |  |  |  |  |
| c1ccc(Cn2ccnc2)cc1 | Not Active | Not Active | Not Active | Not Active | Not Active | Not Active | Not Active | Not Active |  |  |  |  |  |  |  |  |  |  |  |
| CC(C)NCC(O)COc1ccc(CC(N)=O)cc1 (centres undefined) [ATENOLOL] | Not Active |  | Not Active | Not Active | Not Active | Not Active | Not Active | Not Active |  |  |  |  |  |  |  |  |  |  |  |
